Reference: patent US20250144088A1, “INHALABLE FORMULATION FOR USE IN THE TREATMENT OF BACTERIAL LUNG INFECTIONS” (priority 2022, published 2025)
Like-named read-outs stand apart in the source and are kept apart here.

How the values were obtained:
[1] = In vivo pharmacokinetics, current example (i.v., i.n., p.o.), healthy Balb-c mice
Experimental: Values represent the mean of n=6 animals per time point.
After 0.5, 3, 24, 48, 72 and 96 hours, the animals were sacrificed and samples were taken from the blood plasma, lung tissues, lung epithelial fluid and cellular fraction of the lung epithelial fluid. […]

[2] = p.o. 25 mg/kg, HP-β-CD solution, Irwin, 2016, male Balb/c mice, cited from earlier work
J774 cells = test: High content analysis of drug-induced phospholipidosis (DIPL) and cytotoxicity in macrophage-like cells; type: cell-based; conditions: mouse, 48 h
Text: FIG. 1: A macrophage-like cell line (J774 cells) were used to screen whether three different nanocarrier formulations differing in their lipid compositions (1: DOPC/Chol, 2: DMPC/DMPG or 3: pegylated DOPC/Chol) i) are cytotoxic to this cell type and protect the cells from BDQ-induced DIPL. A heat map was used to depict the number of cells with DIPL-induced abnormalities (first two left-hand columns) and cytotoxicity markers (columns on the right). Black fields indicate that <10% of the cells in the treatment groups were abnormal, whereas grey-to-white colored fields denote an increasing proportion of cells with abnormalities. The heatmap at the top depicts the positive control group for DIPL, which consisted of four known CADs (amiodarone, amytryptiline, azithromycin, and BDQ) administered to the cells in solution (no formulation). […] The numbers on the left-hand side of each heatmap denote the CAD dose (μM) and the total lipid concentration (μg/mL) added to each well. The values depicted the mean % abnormal cells from six replicate formulations tested in four different cell passage numbers.
High content analysis was initially used as a rapid screening tool to evaluate interactions between lipid-based nanocarrier (TargoSphere©) formulations applied as liquid dispersions and macrophage cells. […] Two of the formulations (DOPC/Chol and DMPG/DMPC) contained Fuc-C4-Chol as a C-type lectin receptor targeting ligand (+CLR). Four concentrations ranging from 15-700 μg/mL (total solid content) were tested. After an incubation time of 48 h three assays with different fluorescence markers were performed. […]
For high content analysis, images were documented using the Cytation™ 5 Cell Imaging Multi-Mode Reader (BioTek, Bad Friedrichshall, Germany) with a 40× objective in standard 2D imaging mode. For each well 6 pictures were analysed using the Gen5 software (BioTek, Bad Friedrichshall, Germany). […] For both dyes the fluorescence intensity values were measured. […] Area and size of the vacuoles were identified and measured based on negative staining. […]

[3] = mouse, in vivo, po, 30 mg/kg; cited from earlier work
[4] = tested on: Mycobacterium tuberculosis strains; conditions: cited from earlier work
[5] = Balb-c, mouse, in vivo, po, 25 mg/kg

For `COc1nc2ccc(Br)cc2cc1[C@@H](c1ccccc1)[C@@](O)(CCN(C)C)c1cccc2ccccc12` [BDQ, bedaquiline], which tmax ([1]; BDQ in plasma, p.o. 25 mg/kg, drug suspension, current example) is on record?
Its tmax is 0.5 h.

What about the Kp ([1]; Balb-c, mouse, in vivo) of the same molecule?
Its Kp is 62.

What about the “increase in lung exposure after intrapulmonary administration” value ([1]; Balb-c, mouse, in vivo) of the same molecule?
Its value is 3 fold.

What about the Kp ([1]; Balb-c, mouse, in vivo, iv) of the same molecule?
Its Kp is 15.

What about the Kp ([1]; Balb-c, mouse, in vivo, po) of the same molecule?
The Kp was 11.

What about the Tmax [1, 5] of the same molecule?
Its Tmax is 3 h.

What about the tmax [1, 5] of the same molecule?
Its tmax is 24 h.

And the tmax ([2]; BDQ in lung tissue)?
The tmax was 8 h.

And the Cmax ([2]; BDQ in plasma)?
The Cmax was 2900 ng/mL.

And the tmax ([2]; BDQ in plasma)?
The tmax was 0.5 h.

What about the “cells exhibiting abnormal phospholipid accumulation” value (J774 cells) of the same molecule?
The value was ~100%.

And the tmax [3]?
The tmax was 24 h.

For `CC[C@H]1OC(=O)[C@H](C)[C@@H](O[C@H]2C[C@@](C)(OC)[C@@H](O)[C@H](C)O2)[C@H](C)[C@@H](O[C@@H]2O[C@H](C)C[C@H](N(C)C)[C@H]2O)[C@](C)(O)C[C@@H](C)CN(C)[C@H](C)[C@@H](O)[C@]1(C)O` [azithromycin], which “cells exhibiting abnormal phospholipid accumulation” value (J774 cells) is on record?
The value was ~100%.

Which “cells exhibiting abnormal phospholipid accumulation” value (J774 cells) does the source give for `CCCCc1oc2ccccc2c1C(=O)c1cc(I)c(OCCN(CC)CC)c(I)c1` [amiodarone] here?
The value was ~100%.

For `CNCCC(O)(c1cccc2ccccc12)C(c1ccccc1)c1cc2cc(Br)ccc2nc1OC` (stereo not drawn) [M2, N-desmethyl-BDQ], which “attenuated activity against Mycobacterium tuberculosis strains compared to BDQ” value [4] is on record?
Its value is 3- to 5 fold.
